# Test results from patent US20190322676A1, “CERAMIDE GALACTOSYLTRANSFERASE INHIBITORS FOR THE TREATMENT OF DISEASE” (BioMarin Pharmaceutical Inc., priority 2016, published 2019).
# pIC50: −log10 of the molar value.
# Target: T1, human CGT (ceramide galactosyltransferase), CHO/CGT lysate (Homo sapiens, UniProt Q16880)
# T1 construct: Full-length human CGT cDNA was cloned into the BamH1/Xho1 site of pcDNA3.1 (+); expressed in transfected cells; host or cells: Chinese hamster ovary (CHO) cells; lysate prepared with M-PER
# T1 sequence (Q16880 21-541): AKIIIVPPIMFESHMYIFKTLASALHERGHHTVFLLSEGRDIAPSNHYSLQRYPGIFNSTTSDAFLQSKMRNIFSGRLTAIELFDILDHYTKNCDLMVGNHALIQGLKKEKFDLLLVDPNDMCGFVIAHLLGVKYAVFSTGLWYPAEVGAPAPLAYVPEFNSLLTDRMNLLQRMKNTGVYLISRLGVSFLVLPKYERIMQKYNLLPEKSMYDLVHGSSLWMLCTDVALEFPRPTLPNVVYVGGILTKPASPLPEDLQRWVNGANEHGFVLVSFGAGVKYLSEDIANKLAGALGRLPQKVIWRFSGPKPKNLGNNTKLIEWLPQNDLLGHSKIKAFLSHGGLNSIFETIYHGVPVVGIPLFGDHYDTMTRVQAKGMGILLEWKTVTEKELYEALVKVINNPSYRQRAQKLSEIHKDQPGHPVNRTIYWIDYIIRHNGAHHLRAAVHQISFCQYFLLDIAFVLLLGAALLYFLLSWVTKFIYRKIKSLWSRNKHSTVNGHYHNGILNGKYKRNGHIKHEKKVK
# Experiment: CGT enzyme assay, RapidFire/MS/MS readout with 0.01% Tween added (Table 1 ranges with two asterisks **)
# Format: biochemical
# Settings: CGT enzymatic assay; range with two asterisks (**): RapidFire/MS/MS method with 0.01% Tween added
# Procedure, shortened: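 IC50s come from variable-slope dose-response fits of internal-standard-normalized C6-NBD-dihydro-galactosylceramide, measured by RapidFire/MS/MS (ESI negative). Reactions: 1 h, 37 °C, human CGT-expressing CHO lysate (4 μg), 0.001–50 μM compound, 10 μM NBD-dihydro-ceramide, 17.5 μM UDP-galactose, 0.5% DMSO, pH 7.2; 0.01% Tween 80 added for ** values.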
row,Compound,pIC50
1,"O=C([C@@H](NS(=O)(=O)c1ccc2cc(OC3CCCC3)ccc2c1)C(F)(F)c1ccc(-c2ccc(Cl)cc2)cc1)N1CCC12CNC2 [Compound 191-1, (R)-N-(1-(4′-chloro-[1,1′-biphenyl]-4-yl)-1,1-difluoro-3-oxo-3-(1,6-diazaspiro[3.3]heptan-1-yl)propan-2-yl)-6-(cyclopentyloxy)naphthalene-2-sulfonamide]",> 6.00
2,"O=C([C@H](NS(=O)(=O)c1ccc2cc(OC3CCCC3)ccc2c1)C(F)(F)c1ccc(-c2ccc(Cl)cc2)cc1)N1CCC12CNC2 [Compound 191-2, (S)-N-(1-(4′-chloro-[1,1′-biphenyl]-4-yl)-1,1-difluoro-3-oxo-3-(1,6-diazaspiro[3.3]heptan-1-yl)propan-2-yl)-6-(cyclopentyloxy)naphthalene-2-sulfonamide]",5.00 to 6.00
3,"O=C([C@@H](NS(=O)(=O)c1ccc2cc(OC3CCCC3)ccc2c1)C(F)(F)c1ccc(-c2ccc(Cl)cc2)cc1)N1CC[C@H]2CNC[C@H]21 [Compound 192-1, N-((R)-1-(4′-chloro-[1,1′-biphenyl]-4-yl)-1,1-difluoro-3-((3aS,6aS)-hexahydropyrrolo[3,4-b]pyrrol-1(2H)-yl)-3-oxopropan-2-yl)-6-(cyclopentyloxy)naphthalene-2-sulfonamide]",5.00 to 6.00
4,"O=C([C@H](NS(=O)(=O)c1ccc2cc(OC3CCCC3)ccc2c1)C(F)(F)c1ccc(-c2ccc(Cl)cc2)cc1)N1CC[C@@H]2CNC[C@@H]21 [Compound 192-2, N-((S)-1-(4′-chloro-[1,1′-biphenyl]-4-yl)-1,1-difluoro-3-((3aR,6aR)-hexahydropyrrolo[3,4-b]pyrrol-1(2H)-yl)-3-oxopropan-2-yl)-6-(cyclopentyloxy)naphthalene-2-sulfonamide]",4.52 to 5.00
5,"O=C([C@@H](NS(=O)(=O)c1ccc2cc(OC3CCCC3)ccc2c1)C(F)(F)c1ccc(-c2ccc(Cl)cc2)cc1)N1CC[C@@H]2CNC[C@@H]21 [Compound 192-3, N-((R)-1-(4′-chloro-[1,1′-biphenyl]-4-yl)-1,1-difluoro-3-((3aR,6aR)-hexahydropyrrolo[3,4-b]pyrrol-1(2H)-yl)-3-oxopropan-2-yl)-6-(cyclopentyloxy)naphthalene-2-sulfonamide]",> 6.00
6,"O=C([C@H](NS(=O)(=O)c1ccc2cc(OC3CCCC3)ccc2c1)C(F)(F)c1ccc(-c2ccc(Cl)cc2)cc1)N1CC[C@H]2CNC[C@H]21 [Compound 192-4, N-((S)-1-(4′-chloro-[1,1′-biphenyl]-4-yl)-1,1-difluoro-3-((3aS,6aS)-hexahydropyrrolo[3,4-b]pyrrol-1(2H)-yl)-3-oxopropan-2-yl)-6-(cyclopentyloxy)naphthalene-2-sulfonamide]",4.00 to 4.52
7,"C=C(c1ccc(C(F)(F)[C@H](NS(=O)(=O)c2ccc(OCC3CCCCC3)cc2)C(=O)N2CCC(N)CC2)cc1)C(F)(F)F [Compound 193-1, (R)-N-(3-(4-aminopiperidin-1-yl)-1,1-difluoro-3-oxo-1-(4-(3,3,3-trifluoroprop-1-en-2-yl)phenyl)propan-2-yl)-4-(cyclohexylmethoxy)benzenesulfonamide]",> 6.00
8,"C=C(c1ccc(C(F)(F)[C@@H](NS(=O)(=O)c2ccc(OCC3CCCCC3)cc2)C(=O)N2CCC(N)CC2)cc1)C(F)(F)F [Compound 193-2, (S)-N-(3-(4-aminopiperidin-1-yl)-1,1-difluoro-3-oxo-1-(4-(3,3,3-trifluoroprop-1-en-2-yl)phenyl)propan-2-yl)-4-(cyclohexylmethoxy)benzenesulfonamide]",4.00 to 4.52
9,"NC1CC2CCC(C1)N2C(=O)[C@@H](NS(=O)(=O)c1ccc(OCC2CCCCC2)cc1)C(F)(F)c1ccc(Cl)s1 (stereo partly drawn) [Compound 194-1, N-((2R)-3-(3-amino-8-azabicyclo[3.2.1]octan-8-yl)-1-(5-chlorothiophen-2-yl)-1,1-difluoro-3-oxopropan-2-yl)-4-(cyclohexylmethoxy)benzenesulfonamide]",5.00 to 6.00
10,"NC1CC2CCC(C1)N2C(=O)[C@H](NS(=O)(=O)c1ccc(OCC2CCCCC2)cc1)C(F)(F)c1ccc(Cl)s1 (stereo partly drawn) [Compound 194-2, N-((2S)-3-(3-amino-8-azabicyclo[3.2.1]octan-8-yl)-1-(5-chlorothiophen-2-yl)-1,1-difluoro-3-oxopropan-2-yl)-4-(cyclohexylmethoxy)benzenesulfonamide]",4.00 to 4.52
11,"O=C([C@@H](NS(=O)(=O)c1ccc(OCC2CCCCC2)cc1)C(F)(F)c1ccc(-c2ccc(Cl)cc2)cc1)N1CC[C@H]2CNC[C@H]21 [Compound 195-1, N-((R)-1-(4′-chloro-[1,1′-biphenyl]-4-yl)-1,1-difluoro-3-((3aS,6aS)-hexahydropyrrolo[3,4-b]pyrrol-1(2H)-yl)-3-oxopropan-2-yl)-4-(cyclohexylmethoxy)benzenesulfonamide]",5.00 to 6.00
12,"O=C([C@H](NS(=O)(=O)c1ccc(OCC2CCCCC2)cc1)C(F)(F)c1ccc(-c2ccc(Cl)cc2)cc1)N1CC[C@@H]2CNC[C@@H]21 [Compound 195-2, N-((S)-1-(4′-chloro-[1,1′-biphenyl]-4-yl)-1,1-difluoro-3-((3aR,6aR)-hexahydropyrrolo[3,4-b]pyrrol-1(2H)-yl)-3-oxopropan-2-yl)-4-(cyclohexylmethoxy)benzenesulfonamide]",4.00 to 4.52
13,"O=C([C@@H](NS(=O)(=O)c1ccc(OCC2CCCCC2)cc1)C(F)(F)c1ccc(-c2ccc(Cl)cc2)cc1)N1CC[C@@H]2CNC[C@@H]21 [Compound 195-3, N-((R)-1-(4′-chloro-[1,1′-biphenyl]-4-yl)-1,1-difluoro-3-((3aR,6aR)-hexahydropyrrolo[3,4-b]pyrrol-1(2H)-yl)-3-oxopropan-2-yl)-4-(cyclohexylmethoxy)benzenesulfonamide]",5.00 to 6.00
14,"O=C([C@H](NS(=O)(=O)c1ccc(OCC2CCCCC2)cc1)C(F)(F)c1ccc(-c2ccc(Cl)cc2)cc1)N1CC[C@H]2CNC[C@H]21 [Compound 195-4, N-((S)-1-(4′-chloro-[1,1′-biphenyl]-4-yl)-1,1-difluoro-3-((3aS,6aS)-hexahydropyrrolo[3,4-b]pyrrol-1(2H)-yl)-3-oxopropan-2-yl)-4-(cyclohexylmethoxy)benzenesulfonamide]",4.00 to 4.52
15,"NC1CCN(C(=O)[C@@H](NS(=O)(=O)c2ccc(OCC3CCCCC3)cc2)C(F)(F)c2ccc(C3(C(F)(F)F)CC3)cc2)CC1 [Compound 196-1, (R)-N-(3-(4-aminopiperidin-1-yl)-1,1-difluoro-3-oxo-1-(4-(1-(trifluoromethyl)cyclopropyl)phenyl)propan-2-yl)-4-(cyclohexylmethoxy)benzenesulfonamide]",5.00 to 6.00
16,"NC1CCN(C(=O)[C@H](NS(=O)(=O)c2ccc(OCC3CCCCC3)cc2)C(F)(F)c2ccc(C3(C(F)(F)F)CC3)cc2)CC1 [Compound 196-2, (S)-N-(3-(4-aminopiperidin-1-yl)-1,1-difluoro-3-oxo-1-(4-(1-(trifluoromethyl)cyclopropyl)phenyl)propan-2-yl)-4-(cyclohexylmethoxy)benzenesulfonamide]",4.52 to 5.00
17,"COc1cc(C(F)(F)[C@H](NS(=O)(=O)c2ccc3cc(OC4CCCC4)ccc3c2)C(=O)N2C[C@H]3CNC[C@H]3C2)ccc1-c1ccc(Cl)cc1 [Compound 197-1, N-((R)-1-(4′-chloro-2-methoxy-[1,1′-biphenyl]-4-yl)-1,1-difluoro-3-((3aR,6aS)-hexahydropyrrolo[3,4-c]pyrrol-2(1H)-yl)-3-oxopropan-2-yl)-6-(cyclopentyloxy)naphthalene-2-sulfonamide]",> 6.00
18,"COc1cc(C(F)(F)[C@@H](NS(=O)(=O)c2ccc3cc(OC4CCCC4)ccc3c2)C(=O)N2C[C@H]3CNC[C@H]3C2)ccc1-c1ccc(Cl)cc1 [Compound 197-2, N-((S)-1-(4′-chloro-2-methoxy-[1,1′-biphenyl]-4-yl)-1,1-difluoro-3-((3aR,6aS)-hexahydropyrrolo[3,4-c]pyrrol-2(1H)-yl)-3-oxopropan-2-yl)-6-(cyclopentyloxy)naphthalene-2-sulfonamide]",4.52 to 5.00
19,"NC1CCN(C(=O)[C@@H](NS(=O)(=O)c2ccc(OCC3CCCCC3)cc2)C(F)(F)c2ccc3c(c2)oc2cc(Cl)ccc23)CC1 [Compound 198-1, (R)-N-(3-(4-aminopiperidin-1-yl)-1-(7-chlorodibenzo[b,d]furan-3-yl)-1,1-difluoro-3-oxopropan-2-yl)-4-(cyclohexylmethoxy)benzenesulfonamide]",5.00 to 6.00
20,"NC1CCN(C(=O)[C@H](NS(=O)(=O)c2ccc(OCC3CCCCC3)cc2)C(F)(F)c2ccc3c(c2)oc2cc(Cl)ccc23)CC1 [Compound 198-2, (S)-N-(3-(4-aminopiperidin-1-yl)-1-(7-chlorodibenzo[b,d]furan-3-yl)-1,1-difluoro-3-oxopropan-2-yl)-4-(cyclohexylmethoxy)benzenesulfonamide]",4.00 to 4.52
